Reference: patent US20210330611A1, “THERAPY FOR NEUROLOGICAL DISEASES/DISORDERS” (priority 2020, published 2021)
Like-named read-outs stand apart in the source and are kept apart here.

Experiments:
[1] = system: fibrin-induced microglia activation; test: Image-based assay of fibrin-induced microglia activation (HTS and dose response); assay type: cell-based, rat; conditions: for inhibition at 10 µM: Rattus norvegicus, Microglia, read-out: Fibrin % inhibition
[2] = system: LPS-induced microglia activation; test: Image-based assay of LPS-induced microglia activation (HTS and dose response); assay type: cell-based, rat; conditions: for inhibition at 10 µM: Rattus norvegicus, Microglia, read-out: LPS % inhibition
[3] = system: fibrin- and LPS-induced microglia activation; test: cells; assay type: cell-based, rat
[4] = system: primary rat microglia; test: Cell toxicity (dead cells, size <150 μm2) in LPS assay; conditions: for IC50: read-out: Cell Toxicity IC50 (uM) [LPS assay]
[5] = system: primary rat microglia; test: Cell toxicity (dead cells, size <150 μm2) in coated fibrin (cFib) assay; conditions: for IC50: read-out: Cell Toxicity IC50 (uM) [cFib assay];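 for Fibrin % cell toxicity: share of dead cells sized under 150 µm2 at 10 µM in fibrin-stimulated microglia HTS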
[6] = primary microglia HTS, fibrin stimulation, increased cell size (>800 μm^2) as marker of activation
[7] = primary microglia HTS, LPS stimulation, increased cell size (>800 μm^2) as marker of activation
[8] = quadrant by fibrin and LPS inhibition in HTS of 1907 compounds
[9] = primary microglia HTS, LPS stimulation, decreased size (<150 μm^2) as marker of toxicity
[10] = primary microglia HTS, fibrin stimulation, decreased size (<150 μm^2) as marker of toxicity
[11] = 48 h, primary microglia HTS, LPS stimulation, increased cell size (>800 μm^2) as marker of activation
[12] = primary HTS, 10 μM, fibrin-stimulated primary microglia
[13] = primary HTS, 10 μM, LPS-stimulated primary microglia
[14] = primary HTS, 10 μM, LPS assay, dead cells size <150 μm2
[15] = primary HTS, 10 μM, fibrin assay, dead cells size <150 μm2

## CC(=O)[C@@]12O[C@](C)(c3ccccc3)O[C@@H]1C[C@H]1[C@@H]3CCC4=CC(=O)CC[C@]4(C)[C@H]3CC[C@@]12C [Algestone acetophenide, reference compound]
[1]
  Fibrin Selectivity: 9
  Fibrin Selectivity (LOG10): 0.95
[1]; Table 1, dose response 0.001-20 μM, triplicates, primary rat microglia, 48 h, read-out: Fibrin IC50
  IC50: 1 µM
[1]; Table 3, read-out: Fibrin IC50 (uM) (Suppl. Table 7)
  IC50: 1 µM
[1]; dose response, fibrin-induced microglia activation, read-out: Fibrin IC50
  IC50: 1 µM
[1]; fibrin-induced microglia activation, dose response, read-out: Fibrin IC50 (uM) (Suppl. Table 7)
  IC50: 1 µM
[1]; [6]
  Fibrin % inhibition: 62%
[2]; LPS-induced microglia activation, dose response, read-out: LPS IC50 (uM) (Suppl. Table 7)
  IC50: 9 µM
[2]; Table 1, dose response 0.001-20 μM, triplicates, primary rat microglia, 48 h, read-out: LPS IC50
  IC50: 9 µM
[2]; Table 3, read-out: LPS IC50 (uM) (Suppl. Table 7)
  IC50: 9 µM
[2]; dose response, LPS-induced microglia activation, read-out: LPS IC50
  IC50: 9 µM
[2]; [7]
  LPS % inhibition: 61%
[3]; HTS hit classification
  Hit: HIT (Hits were defined as molecules that exhibited greater than 50% inhibition of either fibrin or LPS activation)
[3]; HTS of 1907 compounds, quadrant by fibrin and LPS inhibition
  Quadrant (FIG. 5b): Q2
[3]; Table 1, screen at 10 μM
  Quadrant (FIG. 5b): Q2
[3]; Table 3
  Cherry-picked Hit (Suppl. Table 7): HIT (Hits were defined as molecules that exhibited greater than 50% inhibition of either fibrin or LPS activation)
[3]; Table 3, screen at 10 μM
  Quadrant (FIG. 5b): Q2
[3]; hit classification in microglia HTS
  Cherry-picked Hit (Suppl. Table 7): HIT (Hits were defined as molecules that exhibited greater than 50% inhibition of either fibrin or LPS activation)
[3]; [8]
  Quadrant (FIG. 5b): Q2
[4]; [9]
  LPS % cell toxicity: 2%
[4]; LPS assay
  IC50: > 20 µM
[4]; Table 3
  IC50: > 20 µM
[5]; [10]
  Fibrin % cell toxicity: 1%
[5]; Table 3
  IC50: > 20 µM
[5]; cFib assay
  IC50: > 20 µM

## CCCCC[C@H](O)/C=C/[C@H]1[C@H](O)CC(=O)[C@@H]1CCCCCCC(=O)O [Alprostadil]
[1]; [6]
  inhibition at 10 µM: 100%
[2]; [11]
  inhibition at 10 µM: 87%
[3]; [8]
  Quadrant (FIG. 5b): Q2
[4]; [9]
  LPS % cell toxicity: 3%
[5]; [10]
  Fibrin % cell toxicity: 9%

## CC(=O)OCC(=O)[C@@]12OC3(CCCC3)O[C@@H]1C[C@H]1[C@@H]3CCC4=CC(=O)C=C[C@]4(C)[C@@]3(F)[C@@H](O)C[C@@]12C [Amcinonide]
[1]; [6]
  inhibition at 10 µM: 112%
[2]; [11]
  inhibition at 10 µM: 119%
[3]; [8]
  Quadrant (FIG. 5b): Q2
[4]; [9]
  LPS % cell toxicity: 6%
[5]; [10]
  Fibrin % cell toxicity: 7%

## Nc1c2ccccc2nc2ccccc12 [Aminacrine]
[1]; [6]
  inhibition at 10 µM: 117%
[2]; [11]
  inhibition at 10 µM: 118%
[3]; [8]
  Quadrant (FIG. 5b): Q2
[4]; [9]
  LPS % cell toxicity: 67%
[5]; [10]
  Fibrin % cell toxicity: 72%

## COc1ccc(CCN2CCC(Nc3nc4ccccc4n3Cc3ccc(F)cc3)CC2)cc1 [Astermizole]
[1]; [6]
  Fibrin % inhibition: 10%
[2]; [7]
  LPS % inhibition: 69%
[3]; [8]
  Quadrant (FIG. 5b): Q1
[4]; [9]
  LPS % cell toxicity: 2%
[5]; [10]
  Fibrin % cell toxicity: 1%

## CC(=O)OC[C@H]1O[C@@H]([S-])[C@H](OC(C)=O)[C@@H](OC(C)=O)[C@@H]1OC(C)=O.CCP(CC)CC.[Au+] [Auranofin]
[1]; [6]
  Fibrin % inhibition: 106%
[2]; [7]
  LPS % inhibition: 106%
[3]; [8]
  Quadrant (FIG. 5b): Q2
[4]; [9]
  LPS % cell toxicity: 98%
[5]; [10]
  Fibrin % cell toxicity: 94%

## CN(C)CCCOc1nn(Cc2ccccc2)c2ccccc12 [Benzydamine]
[1]; [12]
  inhibition at 10 µM: -16%
[2]; [13]
  inhibition at 10 µM: 30%
[3]; primary HTS, 10 μM
  Quadrant (FIG. 5b): Q4
[4]; [14]
  LPS % cell toxicity: 1%
[5]; [15]
  Fibrin % cell toxicity: 1%

## OCc1ccccc1 [Benzyl Alcohol]
[1]; [12]
  inhibition at 10 µM: -54%
[2]; [13]
  inhibition at 10 µM: 11%
[3]; primary HTS, 10 μM
  Quadrant (FIG. 5b): Q4
[4]; [14]
  LPS % cell toxicity: 0%
[5]; [15]
  Fibrin % cell toxicity: 0%

## CC1(C)S[C@@H]2[C@H](NC(=O)Cc3ccccc3)C(=O)N2[C@H]1C(=O)O [Benzylpenicillin]
[1]; [12]
  inhibition at 10 µM: 29%
[2]; [13]
  inhibition at 10 µM: 42%
[3]; primary HTS, 10 μM
  Quadrant (FIG. 5b): Q4
[4]; [14]
  LPS % cell toxicity: 0%
[5]; [15]
  Fibrin % cell toxicity: 1%

## C[N+](C)(CCOc1ccccc1)Cc1ccccc1.O=C([O-])c1cc2ccccc2cc1O [Bephenium Hydroxynapthoate]
[1]; [12]
  Fibrin % inhibition: 25%
[2]; [13]
  LPS % inhibition: 19%
[3]; primary HTS, 10 μM
  Quadrant (FIG. 5b): Q4
[4]; [14]
  LPS % cell toxicity: 0%
[5]; [15]
  Fibrin % cell toxicity: 1%

## COc1c2ccoc2cc2oc(=O)ccc12 [Bergapten]
[1]; [12]
  inhibition at 10 µM: -5%
[2]; [13]
  inhibition at 10 µM: 22%
[3]; primary HTS, 10 μM
  Quadrant (FIG. 5b): Q4
[4]; [14]
  LPS % cell toxicity: 0%
[5]; [15]
  Fibrin % cell toxicity: 1%

## O=C1CCO1 [Beta-propiolactone, Propiolactone]
[1]; [12]
  Fibrin % inhibition: −12%
[2]; [13]
  LPS % inhibition: 8%
[3]; primary HTS, 10 μM
  Quadrant (FIG. 5b): Q4
[4]; [14]
  LPS % cell toxicity: 0%
[5]; [15]
  Fibrin % cell toxicity: 1%

## CNCCc1ccccn1 [Betahistine]
[1]; [12]
  inhibition at 10 µM: -29%
[2]; [13]
  inhibition at 10 µM: 13%
[3]; primary HTS, 10 μM
  Quadrant (FIG. 5b): Q4
[4]; [14]
  LPS % cell toxicity: 0%
[5]; [15]
  Fibrin % cell toxicity: 1%

## CC(=O)OCC(=O)[C@@]1(O)[C@@H](C)C[C@H]2[C@@H]3CCC4=CC(=O)C=C[C@]4(C)[C@@]3(F)[C@@H](O)C[C@@]21C [Betamethasone Acetate]
[1]; [6]
  inhibition at 10 µM: 107%
[2]; [11]
  inhibition at 10 µM: 100%
[3]; [8]
  Quadrant (FIG. 5b): Q2
[4]; [9]
  LPS % cell toxicity: 4%
[5]; [10]
  Fibrin % cell toxicity: 3%

## O=C(O)CCNC(=O)c1ccccc1 [Betamipron]
[1]; [12]
  inhibition at 10 µM: -6%
[2]; [13]
  inhibition at 10 µM: 14%
[3]; primary HTS, 10 μM
  Quadrant (FIG. 5b): Q4
[4]; [14]
  LPS % cell toxicity: 0%
[5]; [15]
  Fibrin % cell toxicity: 1%

## CC(C)(Oc1ccc(CCNC(=O)c2ccc(Cl)cc2)cc1)C(=O)O [Bezafibrate]
[1]; [12]
  inhibition at 10 µM: -4%
[2]; [13]
  inhibition at 10 µM: 18%
[3]; primary HTS, 10 μM
  Quadrant (FIG. 5b): Q4
[4]; [14]
  LPS % cell toxicity: 0%
[5]; [15]
  Fibrin % cell toxicity: 0%

## CC(C)(C)CC(C)(C)c1cc(Cc2cc(C(C)(C)CC(C)(C)C)cc(-n3nc4ccccc4n3)c2O)c(O)c(-n2nc3ccccc3n2)c1 [Bisoctrizole]
[1]; [12]
  inhibition at 10 µM: 33%
[2]; [13]
  inhibition at 10 µM: 20%
[3]; primary HTS, 10 μM
  Quadrant (FIG. 5b): Q4
[4]; [14]
  LPS % cell toxicity: 0%
[5]; [15]
  Fibrin % cell toxicity: 0%

## CC(C)NCC(O)COc1ccc(COCCOC(C)C)cc1 (stereo not shown) [Bisoprolol]
[1]; [12]
  inhibition at 10 µM: 1%
[2]; [13]
  inhibition at 10 µM: 13%
[3]; primary HTS, 10 μM
  Quadrant (FIG. 5b): Q4
[4]; [14]
  LPS % cell toxicity: 0%
[5]; [15]
  Fibrin % cell toxicity: 0%

## S=C=Nc1ccc(N=C=S)cc1 [Bitoscanate]
[1]; [12]
  inhibition at 10 µM: -9%
[2]; [13]
  inhibition at 10 µM: 3%
[3]; primary HTS, 10 μM
  Quadrant (FIG. 5b): Q4
[4]; [14]
  LPS % cell toxicity: 1%
[5]; [15]
  Fibrin % cell toxicity: 1%

## Cc1cc2c(OCC(CNC(C)(C)C)OC(=O)c3ccccc3)cccc2[nH]1 (stereo not shown) [Bopindolol]
[1]; [6]
  inhibition at 10 µM: 105%
[2]; [11]
  inhibition at 10 µM: 81%
[3]; [8]
  Quadrant (FIG. 5b): Q2
[4]; [9]
  LPS % cell toxicity: 2%
[5]; [10]
  Fibrin % cell toxicity: 6%

## COc1ccccc1Oc1c(NS(=O)(=O)c2ccc(C(C)(C)C)cc2)nc(-c2ncccn2)nc1OCCO [Bosentan]
[1]; [12]
  inhibition at 10 µM: -14%
[2]; [13]
  inhibition at 10 µM: 10%
[3]; primary HTS, 10 μM
  Quadrant (FIG. 5b): Q4
[4]; [14]
  LPS % cell toxicity: 0%
[5]; [15]
  Fibrin % cell toxicity: 1%

## CCN[C@H]1CN(CCCOC)S(=O)(=O)c2sc(S(N)(=O)=O)cc21 [Brinzolamide]
[1]; [12]
  inhibition at 10 µM: -3%
[2]; [13]
  inhibition at 10 µM: 5%
[3]; primary HTS, 10 μM
  Quadrant (FIG. 5b): Q4
[4]; [14]
  LPS % cell toxicity: 0%
[5]; [15]
  Fibrin % cell toxicity: 0%

## Nc1c(CC(=O)O)cccc1C(=O)c1ccc(Br)cc1 [Bromfenac]
[1]; [12]
  inhibition at 10 µM: -12%
[2]; [13]
  inhibition at 10 µM: 0%
[3]; primary HTS, 10 μM
  Quadrant (FIG. 5b): Q4
[4]; [14]
  LPS % cell toxicity: 0%
[5]; [15]
  Fibrin % cell toxicity: 1%

## CN(Cc1cc(Br)cc(Br)c1N)C1CCCCC1 [Bromhexine]
[1]; [12]
  inhibition at 10 µM: -16%
[2]; [13]
  inhibition at 10 µM: 11%
[3]; primary HTS, 10 μM
  Quadrant (FIG. 5b): Q4
[4]; [14]
  LPS % cell toxicity: 0%
[5]; [15]
  Fibrin % cell toxicity: 0%

## O=C1c2ccccc2C(=O)C1c1ccc(Br)cc1 [Bromindione]
[1]; [12]
  inhibition at 10 µM: 17%
[2]; [13]
  inhibition at 10 µM: 27%
[3]; primary HTS, 10 μM
  Quadrant (FIG. 5b): Q4
[4]; [14]
  LPS % cell toxicity: 0%
[5]; [15]
  Fibrin % cell toxicity: 1%
